pEC50, pIC50: −log10 of the molar value.
molecular target: T1, SIRT1 (Homo sapiens, UniProt Q96EB6); assay: Fluorescence polarization or mass spectrometry based assay to identify modulators of SIRT1 activity (p53-based peptide deacetylation); type: biochemical; details: activation of SIRT1, Table 4; read-out: ED50 (the source's name);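 further: recombinant His-tagged human SIRT1 deacetylating p53-derived acetylated peptide, detected by fluorescence polarization after trypsin cleavage, signal inversely tracking deacetylase activity, compared against activity without test compound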
T1 sequence (Q96EB6 1-747): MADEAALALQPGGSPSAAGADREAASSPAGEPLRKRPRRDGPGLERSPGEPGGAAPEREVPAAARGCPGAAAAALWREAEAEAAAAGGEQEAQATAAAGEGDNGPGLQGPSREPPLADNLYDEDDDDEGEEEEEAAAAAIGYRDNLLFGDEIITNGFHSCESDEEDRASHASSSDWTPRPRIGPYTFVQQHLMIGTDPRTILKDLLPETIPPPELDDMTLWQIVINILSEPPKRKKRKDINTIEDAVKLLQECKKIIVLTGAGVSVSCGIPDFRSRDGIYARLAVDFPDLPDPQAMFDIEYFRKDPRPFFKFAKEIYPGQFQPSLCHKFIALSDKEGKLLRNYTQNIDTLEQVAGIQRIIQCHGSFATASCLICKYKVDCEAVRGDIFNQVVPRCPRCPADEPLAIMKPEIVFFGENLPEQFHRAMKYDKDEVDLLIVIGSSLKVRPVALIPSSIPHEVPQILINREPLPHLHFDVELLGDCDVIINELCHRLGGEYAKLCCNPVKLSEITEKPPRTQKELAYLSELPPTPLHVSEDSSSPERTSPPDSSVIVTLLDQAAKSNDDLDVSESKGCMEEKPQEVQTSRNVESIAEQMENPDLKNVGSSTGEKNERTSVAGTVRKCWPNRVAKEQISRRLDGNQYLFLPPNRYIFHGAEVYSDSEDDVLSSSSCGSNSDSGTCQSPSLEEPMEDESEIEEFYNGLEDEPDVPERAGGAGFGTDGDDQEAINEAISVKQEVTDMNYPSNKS

pEC50 | SMILES
< 3.82 | Cc1ccc2nc(-c3ccco3)cc(C(=O)N3CCOCC3)c2c1 [Compound 35]
< 3.82 | Cc1ccc2nc(-c3cccs3)cc(C(=O)N3CCCN(C)CC3)c2c1 [Compound 50]
< 3.82 | CC(C)c1cc(NCc2c3ccccc3nc3ccccc23)n(-c2ccccc2)n1 [Compound 125]
< 3.82 | CS(=O)(=O)c1ccc(F)c(NC(=O)c2c3ccccc3nc3ccccc23)c1 [Compound 135]
< 3.82 | CN(C)c1ccc(C(=O)NNc2cc(-c3ccccc3)nc3ccccc23)cc1 [Compound 25]
> 4.30 | CN(NC(=O)c1ccncc1)c1c2ccccc2nc2ccccc12 [Compound 155]
< 3.82 | O=C(Nc1c2c(nc3ccccc13)CCCC2)c1ccncc1 [Compound 157]
< 3.82 | Cc1ccc2nc(-c3ccco3)cc(C(=O)N(C)CCN(C)C)c2c1 [Compound 32]
< 3.82 | Cc1ccc2nc(-c3ccccc3)cc(C(=O)NCCCN3CCN(C)CC3)c2c1 [Compound 45]
< 3.82 | Cc1ccc2nc(-c3ccccc3)cc(C(=O)NCCCN3CCCCC3)c2c1 [Compound 44]
> 4.30 | c1ccc(NNc2c3ccccc3nc3ccccc23)nc1 [Compound 121]
< 3.82 | O=C(Nc1ccccc1-n1cccc1)c1c2ccccc2nc2ccccc12 [Compound 129]
< 3.82 | COc1ccccc1N1CCN(C(=O)c2c3ccccc3nc3ccccc23)CC1 [Compound 136]
< 3.82 | CC(C)c1cc(Nc2c3ccccc3nc3ccccc23)n(-c2ccccc2)n1 [Compound 131]
< 3.82 | Cc1ccc2nc(-c3cccs3)cc(C(=O)NCCCN3CCOCC3)c2c1 [Compound 53]
> 4.30 | Cc1ccc2nc(-c3cccs3)cc(C(=O)NCCN3CCOCC3)c2c1 [Compound 6]
< 3.82 | CCCCc1ccc(NC(=O)c2c3c(nc4ccccc24)CCCC3)cc1 [Compound 160]

pEC50 | SMILES
< 3.82 | Cc1ccc2nc(-c3cccs3)cc(C(=O)N3CCCCC3)c2c1 [Compound 48]
< 3.82 | CCN(CC)S(=O)(=O)c1ccc(N2CCOCC2)c(NC(=O)c2cc(-c3ccccn3)nc3ccccc23)c1 [Compound 9]
> 4.30 | O=C(NNc1c2ccccc2nc2ccccc12)c1ccncc1 [Compound 10]
< 3.82 | Cc1ccc2nc(-c3cccs3)cc(C(=O)NCCCN3CCN(C)CC3)c2c1 [Compound 18]
> 4.30 | O=C(NNc1cc(-c2ccccc2)nc2ccccc12)c1ccccn1 [Compound 22]
< 3.82 | COc1cc(NC(=O)c2cc(-c3ccccc3)nc3ccccc23)cc(OC)c1OC [Compound 27]
> 4.30 | COc1cc(C(=O)NNc2c3ccccc3nc3ccccc23)cc(OC)c1OC [Compound 3]
> 4.30 | COc1ccc(C(=O)NNc2cc(-c3ccccc3)nc3ccccc23)cc1OC [Compound 26]
< 3.82 | COc1cc(C(=O)NNc2cc(-c3ccccc3)nc3ccccc23)cc(OC)c1OC [Compound 24]
< 3.82 | Cc1ccc2nc(-c3ccco3)cc(C(=O)NCCN(C)CCN(C)C)c2c1 [Compound 46]
> 4.30 | CC(C)c1cc(NC(=O)c2c3ccccc3nc3ccccc23)n(-c2ccccc2)n1 [Compound 118]
> 4.30 | O=C(NCc1ccncc1)c1cc(-c2ccsc2)nc2ccccc12 [Compound 1]
> 4.30 | O=C(NNc1c2ccccc2nc2ccccc12)c1cccnc1 [Compound 11]
< 3.82 | CCCOc1cccc(-c2cc(C(=O)NCCN3CCOCC3)c3ccccc3n2)c1 [Compound 4]
< 3.82 | Cc1ccc2nc(-c3ccco3)cc(C(=O)NCCCN3CCOCC3)c2c1 [Compound 31]
> 4.30 | COc1cc(-c2nnc(-c3c4ccccc4nc4ccccc34)o2)cc(OC)c1OC [Compound 137]
< 3.82 | COc1cc(NCc2c3ccccc3nc3ccccc23)cc(OC)c1OC [Compound 127]

same assay, conditions: inhibition of SIRT1, Table 5

pIC50 | SMILES
< 3.82 | Cc1ccc2nc(-c3ccccc3)cc(C(=O)NCCCCCN3CCOCC3)c2c1 [Compound 170]
< 3.82 | Cc1ccc2nc(-c3ccccc3)cc(C(=O)NCCCCCN3CCCCC3)c2c1 [Compound 171]

Source: patent US20090069301A1, “Acridine and Quinoline Derivatives as Sirtuin Modulators” (Sirtris Pharmaceuticals, Inc., priority 2005, published 2009)
